Reference: patent EP3628672A1 (priority 2018, dated 2020)
pKi: −log10 of the molar value. Read-outs that look alike come from different tables or passages of the source.

Legend:
LasB = target: T1, LasB (Pseudomonas aeruginosa, UniProt P14756); experiment: Elastin assay to determine % inhibition (Elastin Congo-Red, dialysed culture supernatant); assay type: biochemical, P. aeruginosa PAO1; details: read-out: Elastin hydrolysis % inhibition @ 50 / 25 µM inhibitor concentration
T1 construct: uses as source of enzyme dialysed supernatant from P. aeruginosa PAO1; endogenous in cells; host or cells: P. aeruginosa PAO1 culture supernatant, filtered and dialysed
T1 sequence (P14756 198-498): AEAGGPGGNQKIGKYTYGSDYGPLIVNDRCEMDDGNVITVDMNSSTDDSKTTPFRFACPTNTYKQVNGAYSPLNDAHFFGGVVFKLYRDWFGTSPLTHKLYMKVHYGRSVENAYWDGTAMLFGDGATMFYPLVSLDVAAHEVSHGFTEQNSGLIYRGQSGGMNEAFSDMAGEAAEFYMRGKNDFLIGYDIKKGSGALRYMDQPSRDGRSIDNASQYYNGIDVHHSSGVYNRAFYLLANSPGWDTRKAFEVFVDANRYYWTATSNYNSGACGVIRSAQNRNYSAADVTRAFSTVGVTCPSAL
Experimental: (§1) Experiments were therefore conducted (1) to measure the potency of inhibition of compounds of the invention against purified Pseudomonas aeruginosa LasB enzyme and also experiments were conducted (2) to measure the ability of compounds of the invention to inhibit LasB-catalysed elastin degradation. The first assay uses a commercial fluorescent synthetic peptide and purified LasB enzyme. The LasB hydrolysis kinetics are measured allowing the determination of the IC50 and Ki of the inhibitors; the second is a more physiological assay using dialysed Pseudomonas aeruginosa supernatant as source of enzyme, plus its natural substrate Elastin. It is an "end point assay" that determines the percentage of LasB inhibition by each compound for one particular time point and inhibitor concentration. Technical details are described below:
The Elastin assay uses as source of enzyme dialysed supernatant from P. aeruginosa PAO1 and the Elastin Congo-Red as substrate. The natural LasB substrate, elastin, is complexed with the congo-red dye (Elastin Congo-Red, ECR). The elastolysis activity from the culture supernatant will degrade elastin and release the congo-red dye into the supernatant. This red dye release can be measured with a spectrophotometer.
Method: To determine LasB elastase activity and assess compound inhibition, an overnight culture of P. aeruginosa strain PAO1 is diluted in LB medium. After reaching an OD600nm of 0.6, this culture is diluted and incubated for additional 18-24 hours in a shaking incubator. Culture supernatants are recovered by centrifugation and filtrated through a […] filter. These supernatants are dialysed (filtration molecules < 20kDa) into a 50 mM Tris-HCl pH 7.4, 2.5 mM CaCl2 solution at 4°C under agitation for 24 hours. Supernatant dialysed is then mixed volume/volume with the ECR suspension (20 mg/mL of ECR in 100 mM Tris-HCl pH 7.4 buffer supplemented with 1 mM CaCl2) supplemented with Triton X100 (final concentration of 0.01%) in presence of DMSO (positive control) and/or different concentrations of compound (routinely 50 to 1.56 µM). As a negative control, the dialysed supernatant is replaced by Tris-HCl solution (50 mM Tris-HCl pH 7.4, 2.5 mM CaCl2). The mixed reaction is then incubated overnight in a 37°C shaking incubator. The reaction supernatant is recovered by centrifugation and the release of congo-red is measured by its absorbance at 495 nm (OD495nm).
Percentage inhibition is determined using the following equation: ((OD495nmvalue of positive control−OD495nmvalue of negative control)−(OD495nmvalue of treated supernatant−OD495nmvalue of positive control))/(OD495nmvalue of positive control−OD495nmvalue of negative control) × 100. [formula]

[1] = target: T2, purified LasB protein from P. aeruginosa (Pseudomonas aeruginosa, UniProt P14756); experiment: Fluorometric assay to determine Ki (Abz-Ala-Gly-Leu-Ala-p-Nitro-Benzyl-Amide substrate); assay type: biochemical
T2 construct: purchased Merck or Charles River Laboratories
T2 sequence (P14756 198-498): as above
Experimental: as §1
This assay uses commercially available substrate (Abz-Ala-Gly-Leu-Ala-p-Nitro-Benzyl-Amide (Ex: 340 nm, Em: 415 nm) from Peptide International) and purified LasB protein from P. aeruginosa (provided by Merck or Charles River Laboratories). It is performed to determine LasB elastase activity and assess compound inhibition in 96-well plate format. All compounds of Formula (I) were assessed using the method described below.
Method: 10 to 140 ng/ml purified LasB is incubated with 250 µM Abz-Ala-Gly-Leu-Ala-p-Nitro-Benzyl-Amide in 50 mM Tris-HCl pH 7.4, 2.5 mM CaCl2, 0.01% of Triton X100 at 37°C. LasB activity (corresponding to fluorescence emission induced by substrate hydrolysis) is measured over 30 min at 37°C with a fluorescence plate reader such as the Perkin Elmer Envision or similar. Different range of inhibitor concentrations are routinely assessed depending of inhibitor potency from 0.0016 to 200 µM (2-fold dilutions series) in order to determine IC50.
The equation used to calculate the Ki from IC50 is: Ki = IC50 / (1+([S]/Km)) where [S] = 250 µM and Km = 214 µM.

Structure (SMILES)	inhibition at 25 µM (LasB)	pKi [1]	pKi ([1]; Ki calculated from IC50, [S] = 250 µM, Km = 214 µM, 37°C, pH 7.4)
CN1CCN(C(=O)CN2CCN(c3ccc(-c4csc(CNC(=O)C5(CC(=O)O)Cc6ccccc6C5)n4)cc3)CC2)CC1 [Example 36, 2-[2-[[4-[4-[4-[2-(4-methylpiperazin-1-yl)-2-oxo-ethyl]piperazin-1-yl]phenyl]thiazol-2-yl]methylcarbamoyl]indan-2-yl]acetic acid]	> 75%	> 7.30	
CN(C)CC#Cc1ccc(-c2csc(CNC(=O)C3(CC(=O)O)Cc4ccccc4C3)n2)cc1 [Example 37, 2-[2-[[4-[4-[3-(dimethylamino)prop-1-ynyl]phenyl]thiazol-2-yl]methylcarbamoyl]indan-2-yl]acetic acid]	60 to 75%	6.70 to 7.30	
CN1CCN(C(=O)COc2ccc(-c3csc(CNC(=O)C4(CC(=O)O)Cc5ccccc5C4)n3)cn2)CC1 [Example 38, 2-[2-[[4-[6-[2-(4-methylpiperazin-1-yl)-2-oxo-ethoxy]-3-pyridyl]thiazol-2-yl]methylcarbamoyl]indan-2-yl]acetic acid]	60 to 75%	6.70 to 7.30	
CN(C)CC(=O)Nc1ccc(-c2csc(CNC(=O)C3(CC(=O)O)Cc4ccccc4C3)n2)cc1 [Example 39, 2-[2-[[4-[4-[[2-(dimethylamino)acetyl]amino]phenyl]thiazol-2-yl]methylcarbamoyl]indan-2-yl]acetic acid]	60 to 75%	6.70 to 7.30	
CN1CCC(C(=O)Nc2ccc(-c3csc(CNC(=O)C4(CC(=O)O)Cc5ccccc5C4)n3)cc2)CC1 [Example 43, 2-[2-[[4-[4-[(1-methylpiperidine-4-carbonyl)amino]phenyl]thiazol-2-yl]methylcarbamoyl]indan-2-yl]acetic acid]	60 to 75%	5.00 to 6.70	
CN1CCN(C(=O)Nc2ccc(-c3csc(CNC(=O)C4(CC(=O)O)Cc5ccccc5C4)n3)cc2)CC1 [Example 44, 2-[2-[[4-[4-[(4-methylpiperazine-1-carbonyl)amino]phenyl]thiazol-2-yl]methylcarbamoyl]indan-2-yl]acetic acid]	60 to 75%	6.70 to 7.30	
CN1CCN(CC(=O)Nc2ccc(-c3csc(CNC(=O)C4(CC(=O)O)Cc5ccccc5C4)n3)cc2)CC1 [Example 45, 2-[2-[[4-[4-[[2-(4-methylpiperazin-1-yl)acetyl]amino]phenyl]thiazol-2-yl]methylcarbamoyl]indan-2-yl]acetic acid]	60 to 75%	6.70 to 7.30	
CN1CCN(C(=O)COc2ccc(-c3csc(CNC(=O)C4(CC(=O)O)Cc5ccccc5C4)n3)cc2)CC1 [Example 46, 2-[2-[[4-[4-[2-(4-methylpiperazin-1-yl)-2-oxo-ethoxy]phenyl]thiazol-2-yl]methylcarbamoyl]indan-2-yl]acetic acid]	> 75%	6.70 to 7.30	
C[N+]1(C)CCN(C(=O)COc2ccc(-c3csc(CNC(=O)C4(CC(=O)[O-])Cc5ccccc5C4)n3)cc2)CC1 [Example 47, 2-[2-[[4-[4-[2-(4,4-dimethylpiperazin-4-ium-1-yl)-2-oxo-ethoxy]phenyl]thiazol-2-yl]methylcarbamoyl]indan-2-yl]acetate]	60 to 75%	5.00 to 6.70	
O=C(O)CC1(C(=O)NCc2nc(-c3ccc(OCCN4CCOCC4)cc3)cs2)Cc2ccccc2C1 [Example 49, 2-[2-[[4-[4-(2-morpholinoethoxy)phenyl]thiazol-2-yl]methylcarbamoyl]indan-2-yl]acetic acid]	60 to 75%	6.70 to 7.30	
C[N+]1(CCOc2ccc(-c3csc(CNC(=O)C4(CC(=O)[O-])Cc5ccccc5C4)n3)cc2)CCOCC1 [Example 50, 2-[2-[[4-[4-[2-(4-methylmorpholin-4-ium-4-yl)ethoxy]phenyl]thiazol-2-yl]methylcarbamoyl]indan-2-yl]acetate]	60 to 75%	5.00 to 6.70	
C[n+]1ccc(COc2ccc(-c3csc(CNC(=O)C4(CC(=O)[O-])Cc5ccccc5C4)n3)cc2)cc1 [Example 51, 2-[2-[[4-[4-[(1-methylpyridin-1-ium-4-yl)methoxy]phenyl]thiazol-2-yl]methylcarbamoyl]indan-2-yl]acetate]	60 to 75%	6.70 to 7.30	
CN1CCN(C(=O)COc2cccc(-c3csc(CNC(=O)C4(CC(=O)O)Cc5ccccc5C4)n3)c2)CC1 [Example 54, 2-[2-[[4-[3-[2-(4-methylpiperazin-1-yl)-2-oxo-ethoxy]phenyl]thiazol-2-yl]methylcarbamoyl]indan-2-yl]acetic acid]	60 to 75%		5.00 to 6.70
O=C(O)CC1(C(=O)NCc2nc(-c3ccc(OCCCN4CCOCC4)cc3)cs2)Cc2ccccc2C1 [Example 55, 2-[2-[[4-[4-(3-morpholinopropoxy)phenyl]thiazol-2-yl]methylcarbamoyl]indan-2-yl]acetic acid]	60 to 75%	6.70 to 7.30	
C[N+]1(CCCOc2ccc(-c3csc(CNC(=O)C4(CC(=O)[O-])Cc5ccccc5C4)n3)cc2)CCOCC1 [Example 56, 2-[2-[[4-[4-[3-(4-methylmorpholin-4-ium-4-yl)propoxy]phenyl]thiazol-2-yl]methylcarbarmoyl]indan-2-yl]acetate]	60 to 75%	6.70 to 7.30	
CN1CCN(CCCOc2ccc(-c3csc(CNC(=O)C4(CC(=O)O)Cc5ccccc5C4)n3)cc2)CC1 [Example 57, 2-[2-[[4-[4-[3-(4-methylpiperazin-1-yl)propoxy]phenyl]thiazol-2-yl]methylcarbamoyl]indan-2-yl]acetic acid]	60 to 75%	6.70 to 7.30	
O=C(O)CC1(C(=O)NCc2nc(-c3ccc(OCCCN4CCCC4)cc3)cs2)Cc2ccccc2C1 [Example 58, 2-[2-[[4-[4-(3-pyrrolidin-1-ylpropoxy)phenyl]thiazol-2-yl]methylcarbamoyl]indan-2-yl]acetic acid]	60 to 75%	6.70 to 7.30	
O=C([O-])CC1(C(=O)NCc2nc(-c3ccc(OCCC[n+]4ccccc4)cc3)cs2)Cc2ccccc2C1 [Example 59, 2-[2-[[4-[4-(3-pyridm-1-ium-1-ylpropoxy)phenyl]thiazol-2-yl]methylcarbamoyl]indan-2-yl]acetate]	60 to 75%	6.70 to 7.30	
CS(=O)(=O)c1cc(-c2csc(CNC(=O)C3(CC(=O)O)Cc4ccccc4C3)n2)ccc1OCCCN1CCOCC1 [Example 60, 2-[2-[[4-[3-methylsulfonyl-4-(3-morpholinopropoxy)phenyl]thiazol-2-yl]methylcarbamoyl]indan-2-yl]acetic acid]	60 to 75%	> 7.30	
C[N+]1(CCCOc2ccc(-c3csc(CNC(=O)C4(CC(=O)[O-])Cc5ccccc5C4)n3)cc2S(C)(=O)=O)CCOCC1 [Example 61, 2-[2-[[4-[4-[3-(4-methylmorpholin-4-ium-4-yl)propoxy]-3-methylsulfonyl-phenyl]thiazol-2-yl]methylcarbamoyl]indan-2-yl]acetate]	60 to 75%	6.70 to 7.30	
C[N+]1(CCCOc2ccc(-c3csc(CNC(=O)C4(CC(=O)[O-])Cc5cc(F)c(F)cc5C4)n3)cc2S(C)(=O)=O)CCOCC1 [Example 62, 2-[5,6-difluoro-2-[[4-[4-[3-(4-methylmorpholin-4-ium-4-yl)propoxy]-3-methylsulfonyl-phenyl]thiazol-2-yl]methylcarbamoyl]indan-2-yl]acetate]	60 to 75%	6.70 to 7.30	
